Patent US8114900B2, “Amorphous carvedilol dihydrogen phosphate” (Teva Pharmaceutical Industries Ltd., priority 2006, dated 2012)
Like-named read-outs stand apart in the source and are kept apart here.

Columns and labels:
[1] = cited from earlier work
[2] = Solubility of solid forms at pH=7 and 25° C.; assay type: physicochemical
Protocol: The amorphous form (1:1) of the present invention has higher solubility with compared to Form I at pH=7 and 25° C.: […]

[3] = Stability upon heating under extreme heat conditions (oven); assay type: physicochemical; details: 80° C. for 30 min in oven
[4] = Particle size dimensions from microscope images; assay type: physicochemical
Excerpt: It has the advantage of being able to reduce the particle size to a range of smaller dimensions (according to the requirements of the formulator who prepare the capsule or tablet), while when starting in advance with a smaller size of powder (Form I) limits this option. In addition, small particles, reduce flowability.

[5] = % crystallinity calculation using the WinXRD 2.0 program; assay type: physicochemical; details: from XRD
Excerpt: 2.0 program (FIGS. 46, 48, 39, 40, 43, 53, 50, 41).

SMILES: COc1ccccc1OCCNCC(O)COc1cccc2[nH]c3ccccc3c12 (racemic) [carvedilol, (±)-1-(Carbazol-4-yloxy)-3-[[2-(o-methoxyphenoxy)ethyl]amino]-2-propanol]
- solubility ([1]; in alkaline media): < 1 µg/mL
- solubility ([1]; increases with decreasing pH, upper value): up to 100 μg/mL

SMILES: COc1ccccc1OCCNCC(O)COc1cccc2[nH]c3ccccc3c12.O=P(O)(O)O (centres unmarked) [Amorphous, carvedilol dihydrogen phosphate]
- solubility [2]: 14.9 µg/mL

SMILES: COc1ccccc1OCCNCC(O)COc1cccc2[nH]c3ccccc3c12.O=P(O)(O)O (centres unmarked) [Form F1, carvedilol dihydrogen phosphate]
- stability upon heating (solid form) ([3]; listed as F1): stable upon heating
- particle size dimensions ([4]; listed as F1): 50-150 μm
- % crystallinity ([5]; listed as F1): about 86%

SMILES: COc1ccccc1OCCNCC(O)COc1cccc2[nH]c3ccccc3c12.O=P(O)(O)O (centres unmarked) [Form F, carvedilol dihydrogen phosphate]
- stability upon heating (solid form) ([3]; listed as F): stable upon heating
- particle size dimensions ([4]; listed as F): 50-200 μm
- % crystallinity ([5]; listed as F): about 87%

SMILES: COc1ccccc1OCCNCC(O)COc1cccc2[nH]c3ccccc3c12.O=P(O)(O)O (centres unmarked) [Form I, carvedilol dihydrogen phosphate]
- solubility ([2]; listed as I (′027)): 9.6 µg/mL
- particle size dimensions ([4]; listed as I): less than 20 μm
- % crystallinity ([5]; listed as I): about 68%

SMILES: COc1ccccc1OCCNCC(O)COc1cccc2[nH]c3ccccc3c12.O=P(O)(O)O (centres unmarked) [Form IV, reference compound]
- stability upon heating (solid form) [3]: transforms to amorphous form

SMILES: COc1ccccc1OCCNCC(O)COc1cccc2[nH]c3ccccc3c12.O=P(O)(O)O (centres unmarked) [Form L1, carvedilol dihydrogen phosphate]
- stability upon heating (solid form) ([3]; listed as L1): stable upon heating
- % crystallinity ([5]; listed as L1): about 85%

SMILES: COc1ccccc1OCCNCC(O)COc1cccc2[nH]c3ccccc3c12.O=P(O)(O)O (centres unmarked) [Form L, carvedilol dihydrogen phosphate]
- stability upon heating (solid form) ([3]; listed as L): stable upon heating
- % crystallinity ([5]; listed as L): about 88%

SMILES: COc1ccccc1OCCNCC(O)COc1cccc2[nH]c3ccccc3c12.O=P(O)(O)O (centres unmarked) [Form N, carvedilol dihydrogen phosphate]
- particle size dimensions ([4]; listed as N): 200-400 μm
- % crystallinity ([5]; listed as N): about 86%

SMILES: COc1ccccc1OCCNCC(O)COc1cccc2[nH]c3ccccc3c12.O=P(O)(O)O (centres unmarked) [Form P, carvedilol dihydrogen phosphate]
- % crystallinity ([5]; listed as P): about 85%

SMILES: COc1ccccc1OCCNCC(O)COc1cccc2[nH]c3ccccc3c12.O=P(O)(O)O (centres unmarked) [Form R, carvedilol dihydrogen phosphate]
- stability upon heating (solid form) ([3]; listed as R): stable upon heating
- % crystallinity ([5]; listed as R): about 86%

SMILES: COc1ccccc1OCCNCC(O)COc1cccc2[nH]c3ccccc3c12.O=P(O)(O)O (centres unmarked) [Form Y, carvedilol dihydrogen phosphate]
- particle size dimensions ([4]; listed as Y): 20-100 μm
